From patent US9376442B2, “Methylpyrrolopyrimidinecarboxamides” (Takeda GmbH, priority 2009, dated 2016)

What was measured:
PDE5A1 = molecular target: T1, PDE5A1 (Homo sapiens, UniProt O76074); test: Inhibition of type 5 phosphodiesterase (PDE5) activity, modified SPA test with human platelet lysate; type: biochemical; details: 0.5 μM cGMP, read-out: PDE5A1 inhibitory values [measured as −log IC50 (mol/l)] (converted)
T1 construct: from tissue; host or cells: human platelets from fresh donor blood (10,000 x g supernatant of sonicated lysate)
Outline: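 Scintillation proximity assay with [3H]cGMP tracer at 0.5 μM total cGMP, stopped after 15 min with beads containing IBMX. PDE3 and PDE2 activities suppressed with motapizone (1 μM) and a PDE2 inhibitor (10 nM). Human platelet supernatant served as the enzyme, with compound preincubated 5 min at 37° C; IC50 values from concentration-effect curves.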

PDE4B1 = molecular target: T2, PDE4B1 (Homo sapiens, UniProt Q07343); test: Inhibition of type 4 phosphodiesterase (PDE4) activity, modified SPA test with recombinant PDE4B1 expressed in SF21 insect cells; type: biochemical; details: recombinant PDE4B1, 0.5 μM cAMP, read-out: PDE4B1 inhibitory values [measured as −log IC50 (mol/l)] (converted)
T2 construct: made in house; host or cells: SF21 insect cells (baculovirus; pCRBac vector), 1000 x g supernatant of homogenate
Outline: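 Modified [3H]cAMP SPA using 1000×g supernatant of SF21 cells expressing recombinant human PDE4B1, in 20 mM Tris pH 7.4, 0.1 mg/ml BSA, 5 mM Mg2+, 0.5 μM cAMP. After 5 min preincubation at 37 °C, 15 min reaction, stopped with SPA beads plus IBMX; IC50 by non-linear regression.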

mice = details: bleomycin-induced lung fibrosis model in mice; Cortijo et al. 2009; cited from earlier work
[1] = tested on: bleomycin-induced pulmonary fibrosis and pulmonary hypertension; details: Hemnes et al. 2008; cited from earlier work
[2] = tested on: patients with pulmonary fibrosis; details: Ghofrani 2002, Collard 2007; cited from earlier work

T2 sequence (Q07343 whole entry): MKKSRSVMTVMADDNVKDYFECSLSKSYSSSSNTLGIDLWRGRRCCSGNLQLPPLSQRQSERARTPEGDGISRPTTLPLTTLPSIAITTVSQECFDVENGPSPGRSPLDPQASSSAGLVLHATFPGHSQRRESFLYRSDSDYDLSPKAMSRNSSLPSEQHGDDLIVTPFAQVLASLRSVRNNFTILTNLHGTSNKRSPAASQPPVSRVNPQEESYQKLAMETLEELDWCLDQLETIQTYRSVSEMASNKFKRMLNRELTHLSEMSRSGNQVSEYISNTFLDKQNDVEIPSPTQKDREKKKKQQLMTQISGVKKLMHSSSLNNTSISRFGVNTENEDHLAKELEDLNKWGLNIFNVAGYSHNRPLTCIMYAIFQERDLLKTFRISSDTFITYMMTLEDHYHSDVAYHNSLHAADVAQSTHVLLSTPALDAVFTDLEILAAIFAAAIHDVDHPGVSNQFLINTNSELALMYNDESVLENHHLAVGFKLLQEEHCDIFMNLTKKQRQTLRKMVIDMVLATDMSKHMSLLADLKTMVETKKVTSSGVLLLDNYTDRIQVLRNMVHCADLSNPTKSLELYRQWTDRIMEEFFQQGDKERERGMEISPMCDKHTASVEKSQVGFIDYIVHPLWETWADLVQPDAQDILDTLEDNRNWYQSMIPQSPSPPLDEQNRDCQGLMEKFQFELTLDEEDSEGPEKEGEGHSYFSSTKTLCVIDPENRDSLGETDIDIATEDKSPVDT

Row | Compound | IC50 (PDE5A1) [nM] | IC50 (PDE4B1) [nM] | further results
1 | COCC(=O)N1C[C@@H](NC(=O)c2c(C)[nH]c3c(-c4cc(C(F)F)ccc4OCC4CC4)ncnc23)C[C@@H]1C [Example P26, 4-[2-(Cyclopropylmethoxy)-5-(difluoromethyl)phenyl]-N-[(3S,5S)-1-(methoxyacetyl)-5-methylpyrrolidin-3-yl]-6-methyl-5H-pyrrolo[3,2-d]pyrimidine-7-carboxamide] | 1 to 10 | < 100 | –
2 | CC(=O)N[C@H]1CC[C@H](NC(=O)c2c(C)[nH]c3c(-c4cc(C(F)F)ccc4OCC4CC4)ncnc23)C1 [Example P89, N-[(1S,3S)-3-(Acetylamino)cyclopentyl]-4-[2-(cyclopropylmethoxy)-5-(difluoromethyl)phenyl]-6-methyl-5H-pyrrolo[3,2-d]pyrimidine-7-carboxamide] | < 1 | < 100 | –
3 | CCC(=O)N[C@H]1CC[C@H](NC(=O)c2c(C)[nH]c3c(-c4cc(C(F)F)ccc4OCC4CC4)ncnc23)C1 [Example P90, 4-[2-(Cyclopropylmethoxy)-5-(difluoromethyl)phenyl]-6-methyl-N-[(1S,3S)-3-(propanoylamino)cyclopentyl]-5H-pyrrolo[3,2-d]pyrimidine-7-carboxamide] | < 1 | < 100 | –
4 | COCC(=O)N[C@H]1CC[C@H](NC(=O)c2c(C)[nH]c3c(-c4cc(C(F)F)ccc4OCC4CC4)ncnc23)C1 [Example P91, 4-[2-(Cyclopropylmethoxy)-5-(difluoromethyl)phenyl]-N-{(1S,3S)-3-[(methoxyacetyl)amino]cyclopentyl}-6-methyl-5H-pyrrolo[3,2-d]pyrimidine-7-carboxamide] | < 1 | < 100 | –
5 | O=C(Nc1c(Cl)cncc1Cl)c1ccc(OC(F)F)c(OCC2CC2)c1 [roflumilast] | – | – | fibrosis development (mice): inhibit fibrosis development
6 | CCCc1nn(C)c2c(=O)[nH]c(-c3cc(S(=O)(=O)N4CCN(C)CC4)ccc3OCC)nc12 [sildenafil] | – | – | bleomycin-induced pulmonary fibrosis and pulmonary hypertension [1]: attenuates bleomycin-induced pulmonary fibrosis and pulmonary hypertension; exercise tolerance [2]: increases exercise tolerance; lung hemodynamic (vascular resistance and ventilation/perfusion matching) [2]: improves lung hemodynamic
